Laboratory results: paper PMC12320831, “Synthesis and Biological Evaluation of New Chalcogen Semicarbazone (S, Se) and Their Azole Derivatives against Chagas Disease” (Journal of Medicinal Chemistry, 2024)
Several values for one entry are separate records, joined by “and”; a condition that tells them apart may be missing. Equal values may be shown once. Entries after “also recorded” stand apart in the source; their conditions may differ. Where a name gives a salt, the structure may show the parent alone. Read-outs that look alike come from different tables or passages of the source.

What was measured:
[1] = biological target: T1, Recombinant human cathepsin L (hCatL) (Homo sapiens, UniProt P07711); test: Human cathepsin L inhibition assay (Z-FR-AMC substrate); type: biochemical
T1 construct: purchased R&D Systems 952-CY
T1 sequence (P07711 114-333): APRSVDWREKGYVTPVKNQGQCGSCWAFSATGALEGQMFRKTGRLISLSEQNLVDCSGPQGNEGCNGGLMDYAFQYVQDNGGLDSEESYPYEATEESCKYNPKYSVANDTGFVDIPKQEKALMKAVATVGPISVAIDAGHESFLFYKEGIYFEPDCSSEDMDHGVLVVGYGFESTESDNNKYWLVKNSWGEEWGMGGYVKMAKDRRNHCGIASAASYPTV
Method: Compounds were screened at 10 μM. […] The experiment was performed for 30 min.
(§1) All experiments were accomplished in a 384-well black microplate, using a Synergy HTX (Biotek) plate reader at 25 °C with absorption/emission wavelengths of 360/460 nm. All assays were performed in triplicate wells and DMSO was used as a vehicle control. Enzymatic activity was measured and normalized to DMSO controls, and the inhibitor E-64 (10 μM) was used as a positive control for all assays. All experiments were performed in triplicates, with at least two independent assays (n = 6 data points). IC50 values were determined through nonlinear regression. Obtained data were treated and analyzed using GraphPad Prism 9.0 (GraphPad Software, La Jolla, California).

[2] = Host cell cytotoxicity (C2C12 viability); type: cell-based, Mouse; conditions: mouse; for viability at 48 h, 10 µM: < 50% viability considered cytotoxic; for CC50 at 48 h: viability calculated at 10 μM
Method: (§2) Antiparasitic activity and cytotoxicity of compounds were determined as described before (da Silva et al., Boudreau et al.). Mouse myoblasts cell line C2C12 (ATCCCRL-1772), were maintained in high glucose (4.5 g/L glucose) Dulbecco’s modified Eagle’s medium (DMEM Gibco), supplemented with 1% penicillin–streptomycin 10,000 U/mL (Gibco) and 5% fetal bovine serum (FBS, Sigma-Aldrich) at 37 °C with 5% CO2. parasites (CAI/72 strain, DTU TcI) were maintained by weekly coinfection with C2C12 cells. For all activity assays, C2C12 cells were infected at a 10:1 parasite-to-cell ratio with culture-derived trypomastigotes, which were harvested from the supernatant of infected C2C12 cells. After adding compounds to 384-well black clear-bottom plates (Greiner cat. no. 781091), trypomastigotes (7000 parasites/well) and C2C12 cells (700 cells/well) were seeded in a total volume of 50 μL of DMEM per well in the 384-well plates. Compounds were first tested at 10 μM. […] After 48 h at 37 °C and 5% CO2, plates were fixed with 4% formaldehyde solution for at least 1 h, washed with 1× PBS, and stained with 5 μg/mL of 4′,6-diamidino-2-phenylindole (DAPI) for at least 1 h prior to reading. Plates were imaged with the automated ImageXpress MicroXL microscope (Molecular Devices) and analyzed by MetaXpress software (Molecular Devices) using a custom module optimized for this assay. Infection levels (parasites per host cell) were normalized to the positive control (40 μM BNZ) and negative control (DMSO). Antiparasitic activity (EC50) ± standard deviation (SD) and host cell cytotoxicity (C2C12 viability) values were determined from the DRC using Prism software (GraphPad Software, La Jolla, CA). Every assay has three biological replicates, each in triplicates (n = 9 data points).

recombinant Cz (cruzain) = biological target: T2, recombinant Cz (cruzain) (Trypanosoma cruzi, UniProt P25779); test: biochemical; conditions: for Cz inhibition (%): 10 µM; for SICz: ratio between IC50 hCatL and IC50 Cz; for inhibition at 10 µM: read-out: Cz inhibition (%), 10 µM
T2 construct: Cz was expressed and purified as described in da Silva et al; made in house
T2 sequence (P25779 123-337 limits assumed): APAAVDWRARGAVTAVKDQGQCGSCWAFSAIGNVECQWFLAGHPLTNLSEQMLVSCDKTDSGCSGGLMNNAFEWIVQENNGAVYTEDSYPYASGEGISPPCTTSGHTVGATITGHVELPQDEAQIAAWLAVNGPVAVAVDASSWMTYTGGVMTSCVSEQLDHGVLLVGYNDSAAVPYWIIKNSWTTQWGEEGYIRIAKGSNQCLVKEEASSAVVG
Method: The screening assay was performed using 1 nM of Cz diluted in 0.1 M sodium acetate pH 5.5, 1 mM dithiothreitol (DTT), and 0.01% Triton X-100. Cz was expressed and purified as described in da Silva et al. The reaction starts after 10 min incubating the enzyme with the compounds (10 μM), when adding 2.5 μM of the substrate Z-FR-AMC final concentration (Z-Phe-Arg-amidomethylcoumarin, Sigma-Aldrich, C9521) diluted in the same assay buffer (final volume of 30 μL). The experiment was performed for 10 min. […] The DRC was performed with at least nine different concentrations of the inhibitors, diluted by 2-fold serial dilution, ranging from […] to 10 μM.
as §1

T. cruzi CAI/72 strain = test: Antiparasitic activity in C2C12 cells infected with T. cruzi CAI/72 (image-based assay); type: cell-based; conditions: for EC50: mean of three experiments in triplicate (n = 9) ± SD
Method: Antiparasitic activity and cytotoxicity of compounds were determined as described before (da Silva et al., Boudreau et al.). Mouse myoblasts cell line C2C12 (ATCCCRL-1772), were maintained in high glucose (4.5 g/L glucose) Dulbecco’s modified Eagle’s medium (DMEM Gibco), supplemented with 1% penicillin–streptomycin 10,000 U/mL (Gibco) and 5% fetal bovine serum (FBS, Sigma-Aldrich) at 37 °C with 5% CO2. parasites (CAI/72 strain, DTU TcI) were maintained by weekly coinfection with C2C12 cells. For all activity assays, C2C12 cells were infected at a 10:1 parasite-to-cell ratio with culture-derived trypomastigotes, which were harvested from the supernatant of infected C2C12 cells. After adding compounds to 384-well black clear-bottom plates (Greiner cat. no. 781091), trypomastigotes (7000 parasites/well) and C2C12 cells (700 cells/well) were seeded in a total volume of 50 μL of DMEM per well in the 384-well plates. Compounds were first tested at 10 μM. […] Plates were imaged with the automated ImageXpress MicroXL microscope (Molecular Devices) and analyzed by MetaXpress software (Molecular Devices) using a custom module optimized for this assay. Infection levels (parasites per host cell) were normalized to the positive control (40 μM BNZ) and negative control (DMSO). Antiparasitic activity (EC50) ± standard deviation (SD) and host cell cytotoxicity (C2C12 viability) values were determined from the DRC using Prism software (GraphPad Software, La Jolla, CA). Every assay has three biological replicates, each in triplicates (n = 9 data points).

[3] = DPPH radical scavenging (antioxidant) assay; conditions: for Percentage of inhibited DPPH (2 h): mean ± SEM
Method: The antioxidant capacity of the selected Se compound was tested using the DPPH assay described by Astrain-Redin. The compound was tested at three different concentrations (0.06, 0.03, and 0.015 mg/mL) and we used two positive controls: ascorbic acid (ASC) and trolox (TRO). A solution of DPPH (2,2-diphenyl-1-picrylhydrazyl) in methanol (0.04 mg/mL, preserved in the dark) was prepared and 100 μL of this stock solution was added to 100 μL of tested compound solution. The color change, from purple (radical) to yellow (reduced), was measured at 517 nm at different time points (0, 5, 15, 30, 60, 90, and 120 min). All measurements were carried out in triplicate and recorded on a BioTek PowerWave XS spectrophotometer (Biotek). Data were collected using BioTek Gen5Microplate reader and Imager software (Agilent, version 3.12). Results are expressed as a percentage of inhibited DPPH ± standard error of the mean (SEM), calculated using the following formula %inhibitedDPPH=Acontrol−Asample/Acontrol×100 where A control refers to the absorbance of the negative control and A sample refers to the absorbance of the tested compound.

[4] = Compound stability (authors' observation); type: physicochemical; conditions: reason for discontinuation
C2C12 cells = test: Host cell cytotoxicity (C2C12 viability); type: cell-based, Mouse; conditions: 10 µM; < 50% viability considered cytotoxic
Method: as §2

[5] = each of two biological replicates in triplicate, read-out: IC50 hCatL, single biological replicate (Figure 4)
[6] = mean of two experiments in triplicate (n = 6) ± SEM, read-out: IC50 hCatL
[7] = IC50 Cz, single biological replicate (Figure 3), each of two biological replicates in triplicate
[8] = mean of two experiments in triplicate (n = 6) ± SEM, read-out: IC50 Cz
[9] = Trypanosoma cruzi, C2C12, 48 h, read-out: EC50 Tc CAI/72, intracellular amastigotes in C2C12 cells, 48 h
[10] = Trypanosoma cruzi, 10 µM, C2C12 infected cells, read-out: Anti-Tc CAI/72 activity (%)
[11] = read-out: EC50 Tc CAI/72, intracellular amastigotes in C2C12 cells, 48 h
[12] = no DRC performed, bound from the screen at 10 µM, read-out: IC50 hCatL
[13] = C2C12 myoblast cells infected with trypomastigotes
[14] = Trypanosoma cruzi, C2C12, read-out: Anti-Tc CAI/72 activity (%)
[15] = 10 µM, C2C12 infected cells, read-out: Anti-Tc CAI/72 activity (%)

Compound	inhibition at 10 µM [1]	IC50 [1, 6]	viability at 48 h, 10 µM [2]	Cz inhibition (%) (recombinant Cz (cruzain))	IC50 (recombinant Cz (cruzain); [8])	SICz (recombinant Cz (cruzain))	inhibition at 10 µM (recombinant Cz (cruzain))	inhibition at 10 µM (T. cruzi CAI/72 strain; [10])	other results
C/C(=N\NC(N)=[Se])c1ccc(Br)cc1 [Se1f, (E)-2-(1-(4-Bromophenyl)ethylidene)hydrazine-1-carboselenoamide]	97.3%	106 ± 14.9 nM	> 100%	101.08%	14.3 ± 3.57 nM	7.42	> 85%	69.5%	IC50 [1, 5]: 91.3 nM and 121 nM; CC50 at 48 h [2]: > 10000 nM; IC50 (recombinant Cz (cruzain); [7]): 17.8 nM and 10.7 nM; EC50 (T. cruzi CAI/72 strain; [9]): < 1000 nM; EC50 (T. cruzi CAI/72 strain; [11]): 770 ± 170 nM
C/C(=N\Nc1nc(C)cs1)c1cccc(Cl)c1 [Compound S2i, (E)-2-(2-(1-(3-Chlorophenyl)ethylidene)hydrazineyl)-4-methylthiazole]	24.7%	–	–	–	142 ± 79.2 nM	–	97.5%	49.3%	IC50 [1, 12]: > 10000 nM; viability at 48 h, 10 µM [2, 13]: > 100%
O=C1O[C@H]([C@@H](O)CO)C(O)=C1O [ASC, ascorbic acid]	–	–	–	–	–	–	–	–	Percentage of inhibited DPPH (2 h) ([3]; 0,03 mg/ml): 80,33 ± 0,33%; Percentage of inhibited DPPH (2 h) ([3]; 0,06 mg/ml): 80,33 ± 0,67%; time to reach the plateau of the DPPH kinetic curve ([3]; 0.015 mg/mL): 0 min; Percentage of inhibited DPPH (2 h) ([3]; 0,015 mg/ml): 65,33 ± 2,03%
C/C(=N\NC(N)=[Se])c1ccc(C#N)cc1 [Se1e, (E)-2-(1-(4-Cyanophenyl)ethylidene)hydrazine-1-carboselenoamide]	–	–	> 100%	–	–	–	104%	–	stability of the compound [4]: stability problems; also recorded: lack of stability; inhibition at 10 µM (T. cruzi CAI/72 strain; [14]): 57.1%
C/C(=N\NC(N)=S)c1cccc([N+](=O)[O-])c1 [Compound S1h, (E)-2-(1-(3-Nitrophenyl)ethylidene)hydrazine-1-carbothioamide]	94.5%	190 ± 18.4 nM	–	–	1.15 ± 0.74 nM	164.83	100%	24.8%	viability at 48 h, 10 µM [2, 13]: > 100%
C/C(=N\Nc1nc(C)cs1)c1cccc([N+](=O)[O-])c1 [Compound S2h, (E)-4-Methyl-2-(2-(1-(3-nitrophenyl)ethylidene)hydrazineyl)thiazole Hydrochloride]	12.1%	–	–	–	1280 ± 1120 nM	–	96.9%	28.8%	IC50 [1, 12]: > 10000 nM; viability at 48 h, 10 µM [2, 13]: > 100%
C/C(=N\Nc1nc(C)c[se]1)c1cccc(Cl)c1.Cl [Se2i, (E)-2-(2-(1-(3-Chlorophenyl)ethylidene)hydrazineyl)-4-methyl-1,3-selenazole Hydrochloride]	98%	453.7 ± 4.4 nM	> 100%	102.55%	81.7 ± 17.9 nM	5.55	> 85%	–	IC50 [1, 5]: 458 nM and 449 nM; CC50 at 48 h [2]: > 10000 nM; IC50 (recombinant Cz (cruzain); [7]): 63.8 nM and 99.5 nM; EC50 (T. cruzi CAI/72 strain; [9]): < 1000 nM; inhibition at 10 µM (T. cruzi CAI/72 strain; [14]): 65%; EC50 (T. cruzi CAI/72 strain; [11]): 530 ± 570 nM
(E)-2-(1-((3r,5r,7r)-Adamantan-1-yl)ethylidene)hydrazine-1-carbothioamide [Compound S1q]	–	–	–	5.06%	–	–	–	–	C2C12 viability (%) (C2C12 cells): >100%; inhibition (T. cruzi CAI/72 strain; [15]): 38.7%
(E)-2-(1-(Thiophen-3-yl)ethylidene)hydrazine-1-carbothioamide [Compound S1l]	–	–	–	62.83%	–	–	–	–	C2C12 viability (%) (C2C12 cells): >100%; inhibition (T. cruzi CAI/72 strain; [15]): 10.9%
C/C(=N\NC(N)=[Se])c1cccc([N+](=O)[O-])c1 [Se1h, (E)-2-(1-(3-Nitrophenyl)ethylidene)hydrazine-1-carboselenoamide]	98.7%	9.32 ± 0.38 nM	97.3%	–	–	10.22	104%	41%	IC50 (recombinant Cz (cruzain); IC50 Cz, mean of two experiments in triplicate (n = 6) ± SEM): 0.91 ± 0.18 nM
(E)-2-(1-(4-Cyanophenyl)ethylidene)hydrazine-1-carbothioamide [Compound S1e]	–	–	–	98.77%	–	–	–	–	C2C12 viability (%) (C2C12 cells): >100%; inhibition (T. cruzi CAI/72 strain; [15]): 31.6%
Cc1c(C)c2c(c(C)c1O)CCC(C)(C(=O)O)O2 (centres unmarked) [TRO, trolox]	–	–	–	–	–	–	–	–	Percentage of inhibited DPPH (2 h) ([3]; 0,03 mg/ml): 79,33 ± 0,88%; Percentage of inhibited DPPH (2 h) ([3]; 0,06 mg/ml): 79,67 ± 0,67%; time to reach the plateau of the DPPH kinetic curve ([3]; 0.015 mg/mL): 5 min; percentage of activity in the DPPH kinetic curve ([3]; 0.015 mg/mL, kinetic curve over 2 h): 80%; Percentage of inhibited DPPH (2 h) ([3]; 0,015 mg/ml): 79,33 ± 1,33%
COc1cccc(/C(C)=N/NC(N)=[Se])c1 [Se1g, (E)-2-(1-(3-Methoxyphenyl)ethylidene)hydrazine-1-carboselenoamide]	–	–	31.1%	–	–	–	101%	–	inhibition at 10 µM (T. cruzi CAI/72 strain; [14]): 7.03%
